{"source": "paper PMC9467586", "about": "“Development of novel 9-O-substituted-13-octylberberine derivatives as potential anti-hepatocellular carcinoma agents” (Journal of Enzyme Inhibition and Medicinal Chemistry, 2022)", "key": {"Hep3B cells": {"test_system": "Hep3B cells", "test": "In vitro antiproliferative MTT assay, Hep3B cells", "assay_type": "cell-based, human", "conditions": "Homo sapiens, 72 h, mean ± SD (n = 3)", "method": "(§1) HepG2, Sk-Hep-1, Huh-7, Hep3B and L-02 cells were purchased from Nanjing Key Gen Biotech Co. Ltd. (Nanjing, China). The cytotoxicity of test compounds was determined using an MTT assay. Briefly, the cell lines were incubated at 37 °C in a humidified 5% CO2 incubator for 24 h in 96-microwell plates. After medium removal, 100 μL of culture medium with 0.1% DMSO containing test compounds at different concentrations was added to each well and incubated at 37 °C for another 72 h. The MTT (5 mg/mL in PBS) was added and incubated for another 4 h, the optical density was detected with a microplate reader at 490 nm. The IC50 values were calculated according to the dose-dependent curves. All the experiments were repeated in at least three independent experiments."}, "Sk-Hep-1 cells": {"test_system": "Sk-Hep-1 cells", "test": "In vitro antiproliferative MTT assay, Sk-Hep-1 cells", "assay_type": "cell-based, human", "conditions": "Homo sapiens, SK-HEP1, 72 h, mean ± SD (n = 3)", "method": "as §1"}, "HepG2 cells [1]": {"test_system": "HepG2 cells", "test": "Cell cycle analysis by PI staining and flow cytometry", "assay_type": "cell-based, human", "conditions": "for G2 phase cell percentage: 72 h (control 18.00%); for S phase cell percentage: 72 h (control 22.95%); for G1 phase cell percentage: 72 h (control 59.05%)", "method": "HepG2 cells were seeded into 6-well plates and incubated at 37 °C in a humidified 5% CO2 incubator for 24 h, and then treated with or without 6k at indicated concentrations for another 72 h. The collected cells were fixed by adding 70% ethanol at 4 °C for 12 h. Subsequently, the cells were resuspended in PBS containing 100 μL RNase A and 400 μL of PI for 30 min. The DNA content of the cells was measured using a FACS Calibur flow cytometer (BectoneDickinson, San Jose, CA, USA)."}, "HepG2 cells [2]": {"test_system": "HepG2 cells", "test": "Annexin V-FITC/PI apoptosis assay, flow cytometry", "assay_type": "cell-based, human", "conditions": "72 h (control 6.28%)", "method": "Briefly, after treatment with or without 6k at indicated concentrations for 72 h, the cells were washed twice in PBS, centrifuged and resuspended in 500 μL AnnexinV binding buffer. The cells were then harvested, washed and stained with 5 μL Annexin V-FITC and 5 μL PI in the darkness for 15 min. Apoptosis was analysed using a FACS Calibur flow cytometer (BectoneDickinson, San Jose, CA, USA)."}, "[3]": {"test_system": "H22 liver cancer xenograft", "test": "In vivo anti-HCC assay, H22 liver cancer xenograft mouse model", "design": "species or system mice", "conditions": "intravenous; for tumour inhibitory rate (TIR, w/w): once a day for 21 days, H22 mice", "method": "Five-week-old male Institute of Cancer Research (ICR) mice were purchased from Shanghai SLAC Laboratory Animals Co. Ltd. Briefly, a total of 1 × 10^6 H22 cells were subcutaneously inoculated into the right flank of ICR mice according to protocols of tumour transplant research, to initiate tumour growth. After incubation for one day, mice were weighed and randomly divided into 5 groups of 8 animals. The groups were administered berberine (30 mg/kg) and 6k (15 or 30 mg/kg) in a vehicle of 10% DMF/2% Tween 80/88% saline, respectively. Vehicle and cyclophosphamide (20 mg/kg) were employed as negative and positive controls, respectively. Treatments were performed by intravenous injection once per day for a total of 21 consecutive days. Body weights and tumour volumes were measured every 2 days. The mice were sacrificed after the treatments, and the tumours were excised and weighed. The tumour volume and inhibition rate (w/w) were calculated as follows: tumour volume = L × W^2/2, where L is the length and W is the width; tumour inhibitory ratio (%) = (1-average tumour weight of treated group/average tumour weight of control group) × 100%. All procedures were performed following institutional approval in accordance with the NIH Guide for the Care and Use of Laboratory Animals."}, "[4]": {"test": "LWP coefficient (log D) measurement, shake flask", "assay_type": "physicochemical", "conditions": "pH 7.4", "method": "Berberine, 3c and 6k of 1 mg were dissolved in three centrifugal tubes (5 ml) containing phosphate buffer (pH 7.4)-saturated 1-octanol solution (2 mL), followed by the addition of 1-octanol saturated PBS (2 mL). Each tube was vigorously mixed for 1 min and then shaken for 6 h at a speed of 1000 rpm at 37 °C. The mixtures were then centrifuged. 1 mL of 1-octanol phase and 1 mL of buffer were separately collected. Each phase was diluted to a suitable concentration and analysed by HPLC (Shimadzu DGU-20A3R) on a Shimadzu-GL WondaSil C18-WR column (λ = 254 nm) with an eluent of methanol/water (65/35, v/v, 1.0 ml/min). The log D value for each compound was calculated from the ratio of the peak areas using the following equation: Log D = log (Areaoct × x/Areabuf × y). x, y is the dilution factor."}, "[5]": {"test_system": "p-cdc25c, cdc2 and cyclin B1", "test": "Western blot of G2/M-related proteins", "assay_type": "cell-based, human", "conditions": "HepG2, 72 h, concentration-dependent", "method": "(§2) HepG2 cells were incubated with different doses of 6k for 72 h. Cells were collected, centrifuged, and washed two times with ice-cold PBS. The pellet was then re-suspended in lysis buffer. After the cells were lysed on ice for 20 min, lysates were centrifuged at 13000 g at 4 °C for 15 min. The protein concentration in the supernatant was determined using the BCA protein assay reagents. Equal amounts of protein (20 μg) were resolved using sodium dodecyl sulfate-polyacrylamide gel electrophoresis (SDS-PAGE) (10–12% acrylamide gels) and transferred to PVDF membrane. Membranes were blocked for 1 h at room temperature. Membranes were then incubated with primary antibodies against p-cdc25c, cdc2, cyclin B1, Bax, Bcl-2, cytochrome C, caspase-3, VDAC1 and β-actin, the membrane being gently rotated overnight at 4 °C. The bound antibodies were detected using horseradish peroxidase (HRP)-conjugated second antibodies and visualised by the enhanced chemiluminescent reagent."}, "HepG2 cells [6]": {"test_system": "HepG2 cells", "test": "In vitro antiproliferative MTT assay, HepG2 cells", "assay_type": "cell-based, human", "conditions": "Homo sapiens, 72 h, mean ± SD (n = 3), read-out: IC50 (antiproliferative activity against HepG2 cells)", "method": "as §1"}, "duplex DNA (F10T)": {"test_system": "duplex DNA (F10T)", "test": "FRET-melting assay, F10T (duplex DNA model)", "assay_type": "binding", "conditions": "2 μM compounds"}, "[7]": {"test_system": "Bax, Bcl-2, cytochrome C and caspase-3", "test": "Western blot of apoptosis-related proteins", "assay_type": "cell-based, human", "conditions": "HepG2, 72 h, concentration-dependent", "method": "as §2"}, "c-MYC G4 DNA (FPu18T)": {"test_system": "c-MYC G4 DNA (FPu18T)", "test": "FRET-melting assay, FPu18T (c-MYC G4 DNA model)", "conditions": "2 μM compounds"}}, "data": [{"smiles": "CCCCCCCCc1c2[n+](cc3c(OCCCCCCCCN4CCN(C)CC4)c(OC)ccc13)CCc1cc3c(cc1-2)OCO3.[Br-]", "note": "[Compound 6k, 10-Methoxy-9-((8–(4-methylpiperazin-1-yl)octyl)oxy)-13-octyl-5,6-dihydro-[1,3]dioxolo[4,5-g]isoquinolino[3,2-a]isoquinolin-7-ium bromide]", "values": [{"measurement": "melting point", "result": "151 to 153", "unit": "°C"}, {"measurement": "IC50", "setting": "Hep3B cells", "result": "1600 ± 110", "unit": "nM"}, {"measurement": "IC50", "setting": "Sk-Hep-1 cells", "result": "1690 ± 70", "unit": "nM"}, {"measurement": "Effect on cell cycle progression", "setting": "HepG2 cells [1]; HepG2, 0.25-1.0 μM, 72 h", "result": "cell cycle arrest at G2/M phase"}, {"measurement": "G2 phase cell percentage", "setting": "HepG2 cells [1]; HepG2, 6k 0.25 μM", "result": 23.56, "unit": "%"}, {"measurement": "S phase cell percentage", "setting": "HepG2 cells [1]; HepG2, 6k 0.25 μM", "result": 16.19, "unit": "%"}, {"measurement": "G1 phase cell percentage", "setting": "HepG2 cells [1]; HepG2, 6k 0.25 μM", "result": 60.24, "unit": "%"}, {"measurement": "G2 phase cell percentage", "setting": "HepG2 cells [1]; HepG2, 6k 0.50 μM", "result": 29.49, "unit": "%"}, {"measurement": "S phase cell percentage", "setting": "HepG2 cells [1]; HepG2, 6k 0.50 μM", "result": 22.68, "unit": "%"}, {"measurement": "G1 phase cell percentage", "setting": "HepG2 cells [1]; HepG2, 6k 0.50 μM", "result": 47.82, "unit": "%"}, {"measurement": "G2 phase cell percentage", "setting": "HepG2 cells [1]; HepG2, 6k 1.0 μM", "result": 32.16, "unit": "%"}, {"measurement": "S phase cell percentage", "setting": "HepG2 cells [1]; HepG2, 6k 1.0 μM", "result": 26.95, "unit": "%"}, {"measurement": "G1 phase cell percentage", "setting": "HepG2 cells [1]; HepG2, 6k 1.0 μM", "result": 40.88, "unit": "%"}, {"measurement": "total cell percentages of G1 and S phases", "setting": "HepG2 cells [1]; HepG2, 6k 1.0 μM, 72 h (control 82.00%)", "result": 67.83, "unit": "%"}, {"measurement": "total apoptotic cells (Q2 + Q3)", "setting": "HepG2 cells [2]; HepG2, 0.25 μM", "result": 16.42, "unit": "%"}, {"measurement": "total apoptotic cells (Q2 + Q3)", "setting": "HepG2 cells [2]; HepG2, 0.50 μM", "result": 34.29, "unit": "%"}, {"measurement": "total apoptotic cells (Q2 + Q3)", "setting": "HepG2 cells [2]; HepG2, 1.0 μM", "result": 59.17, "unit": "%"}, {"measurement": "tumour inhibitory rate (TIR, w/w)", "setting": "[3]; 15 mg/kg", "result": 50.4, "unit": "%"}, {"measurement": "tumour inhibitory rate (TIR, w/w)", "setting": "[3]; 30 mg/kg", "result": 61.1, "unit": "%"}, {"measurement": "mice body weights during treatment", "setting": "[3]; 15 or 30 mg/kg, 21 days", "result": "didn’t cause significant loss in mice body weights"}, {"measurement": "logD", "setting": "[4]", "result": 3.87}, {"measurement": "cdc2", "setting": "[5]", "result": "inhibited cdc2 kinase activation"}, {"measurement": "cdc25c phosphorylation (p-cdc25c)", "setting": "[5]", "result": "significantly promoted cdc25c phosphorylation"}, {"measurement": "cyclin B1", "setting": "[5]", "result": "reduced cyclin B1 binding"}, {"measurement": "IC50", "setting": "HepG2 cells [6]", "result": "760 ± 60", "unit": "nM"}, {"measurement": "ΔTm(B) = Tm(F10T + compound) - Tm(F10T)", "setting": "duplex DNA (F10T)", "result": 0.8, "unit": "°C"}, {"measurement": "Bax expression", "setting": "[7]", "result": "upregulated Bax expression"}, {"measurement": "Bcl-2 expression", "setting": "[7]", "result": "downregulated Bcl-2 expression"}, {"measurement": "caspase-3", "setting": "[7]", "result": "activated caspase-3"}, {"measurement": "cytochrome C release", "setting": "[7]", "result": "promoted cytochrome C release"}, {"measurement": "ΔTm(A) = Tm(FPu18T + compound) - Tm(FPu18T)", "setting": "c-MYC G4 DNA (FPu18T)", "result": 13.8, "unit": "°C"}]}]}
